The record followed here is patent US20250241927A1, “MEDICAMENT COMPRISING A P2X4 RECEPTOR ANTAGONIST FOR PREVENTING OR TREATING NOCICEPTIVE PAIN AND/OR VISCERAL PAIN” (NIPPON CHEMIPHAR CO., LTD., priority 2021, published 2025).

Entries after “also recorded” stand apart in the source; their conditions may differ. Like-named read-outs stand apart in the source and are kept apart here.

Holding throughout (type): in vivo, rat
The nature of assay [1]: Prevention test: body weight of DNBS-treated rats. Particulars: Day 1 vs Day 6, DNBS weight loss approximately 10%, not significant. As to the method: (§1) In addition, in order to evaluate an effect of repeated administration of a P2X4 antagonist, two different tests (that is, prevention test and intervention test) were adopted. In the prevention test, the test medicament was administered daily to the rats immediately after the delivery of DNBS (Day 1), and the treatment was continued until the rats were sacrificed on the 6th day (Day 6). In the intervention test, the daily treatment with the medicament began 2 days after the delivery of DNBS (Day 3), and the rats were sacrificed on the 8th day (Day 8).
Visceral sensitivity was evaluated by measuring AWR to colorectal distension (0.5 to 3 mL). In the prevention test, the test medicament was administered daily to the rats immediately after the administration of DNBS, and the treatment was continued until the rats were sacrificed on the 6th day (Day 6). The evaluation was performed 6 days after the induction of colitis and 24 hours after the last treatment with Compound A (A) and Compound B (B). After the test, the animals were sacrificed, and macroscopic damage scores were assigned to their colons (FIG. 2C and FIG. 2D). In FIG. 2E and FIG. 2F, weights (g) of the animals before the DNBS injection (Day 1) and at the end of the preventive treatment with Compound A and Compound B (Day 6) are shown, respectively.

A short description of assay [2]: Intervention test: body weight of DNBS-treated rats. Conditions: Day 1 vs Day 8, DNBS weight loss approximately 10%, not significant. The procedure:
as §1
In the test, the administration of the compounds began 2 days after the delivery of DNBS (Day 3) and was continued until the rats were sacrificed on the 8th day (Day 8). Evaluation was performed 8 days after the induction of colitis (Day 8) and 24 hours after the last treatment with Compound A (A) and Compound B (B). After the test, the animals were sacrificed, and macroscopic damage scores were assigned to their colons (FIG. 3C and FIG. 3D). In FIG. 3E and FIG. 3F, weights (g) of the animals before the DNBS injection (Day 1) and at the end of the intervention treatment with Compound A and Compound B (Day 8) are reported, respectively.

Assay [3] has as its system colonic damage in rats induced by the intrarectal injection of DNBS. The assay can be described thus: Prevention test: macroscopic colonic damage score in DNBS-treated rats. Conditions: prevention test: daily from Day 1 to Day 6. As to the method:
(§2) Colitis was induced by intrarectal administration of 15 mg of 2,4-dinitrobenzenesulfonic acid (DNBS; Sigma-Aldrich S.r.l., Milano, Italia) in 0.25 ml of 50% ethanol via a polyethylene PE-60 catheter inserted approximately 8 cm into the anus, while the rat was under short-term anesthesia by isoflurane (2%). To control rats, 0.25 ml of a vehicle was administered.
(§3) In addition, in order to evaluate an effect of repeated administration of a P2X4 antagonist, two different tests (that is, prevention test and intervention test) were adopted. […]
(§4) The macroscopic criteria were as follows: • presence of adhesion between colon and another intraperitoneal organ (0-2: no adhesions: 0 points, adhesion with only one adjacent organ: 1 point, and adhesions with a plurality of adjacent organs: 2 points); • consistency of colon fecal matter (indirect marker of diarrhea; 0-2: formed stool: 0 points, loose stool: 1 point, and liquid stool: 2 points); • thickening of colonic wall (mm: 1 point was scored for 1 mm); and • presence and spread of hyperemia and macroscopic mucosal damage (0-5: none: 0 points, hyperemic: 1 point, ulcers without hyperemia or thickening of intestinal wall: 2 points, ulcer with inflammation at one site: 3 points, ulcers with inflammation at two or more sites: 4 points, and wide site of damage exceeding 1 cm along length of colon: 5 points). […]

Assay [4] relates to visceral pain (visceral hypersensitivity) in rats induced by intrarectal injection of DNBS. Conditions: prevention test: daily from Day 1 to Day 6, evaluated 6 days after colitis induction, 24 hours after last treatment. The procedure:
Male Sprague-Dawley rats (Envigo, Varese, Italy) weighing approximately 300 g at the beginning of a test were used. The animals were housed in Centro Stabulazione Animali da Laboratorio (CeSAL, University of Florence) and used at least one week after their arrival. Four rats were raised per cage (size 26×41 cm). The animals were fed with standard laboratory diet and tap water ad libitum and kept at 23±1° C. with a 12-hour light/dark cycle (light at 7:00 in the morning). All animal manipulations were carried out according to the European Community Guidelines for Animal Care (DL116/92) and the application of European Communities Council Directive of Nov. 24, 1986 (86/609/EEC). The ethical policy of the University of Florence complies with the Guide for the Care and Use of Laboratory Animals of the US National Institutes of Health (NIH Publication No. 85-23, revised 1996, University of Florence assurance number: A5278-01). Formal approval to conduct the experiments described was obtained from the Animal Subjects Review Board of the University of Florence. […]
(§5) Visceral sensitivity to colorectal distension (CRD) was evaluated by measurement of abdominal withdrawal reflex (AWR) in conscious animals using semiquantitative scores (Lucarini et al., Cells. 2020; 9 (8): E1772). […]
Visceral sensitivity was evaluated by measuring AWR to colorectal distension (0.5 to 3 mL). […]

The test system is the same in assay [5]. Nature of the assay: Intervention test (repeated administration): AWR to colorectal distension in DNBS-treated rats. Particulars: for effect on visceral pain compared with the treatment with dexamethasone: intervention test; for onset of visceral pain (visceral hypersensitivity): intervention test: daily from Day 3 to Day 8, evaluated Day 8, 24 hours after last treatment. As to the method: (§6) Male Sprague-Dawley rats (Envigo, Varese, Italy) weighing approximately 300 g at the beginning of a test were used. The animals were housed in Centro Stabulazione Animali da Laboratorio (CeSAL, University of Florence) and used at least one week after their arrival. Four rats were raised per cage (size 26×41 cm). The animals were fed with standard laboratory diet and tap water ad libitum and kept at 23±1° C. with a 12-hour light/dark cycle (light at 7:00 in the morning). All animal manipulations were carried out according to the European Community Guidelines for Animal Care (DL116/92) and the application of European Communities Council Directive of Nov. 24, 1986 (86/609/EEC). The ethical policy of the University of Florence complies with the Guide for the Care and Use of Laboratory Animals of the US National Institutes of Health (NIH Publication No. 85-23, revised 1996, University of Florence assurance number: A5278-01). Formal approval to conduct the experiments described was obtained from the Animal Subjects Review Board of the University of Florence. Experiments involving animals have been reported according to ARRIVE guidelines (McGrath and Lilley, Br. J. Pharmacol. 2015; 172:3189-3193). All efforts were made to minimize suffering of the animals and to reduce the number of animals used.
as §2, §1
Visceral sensitivity to colorectal distension (CRD) was evaluated by measurement of abdominal withdrawal reflex (AWR) in conscious animals using semiquantitative scores (Lucarini et al., Cells. 2020; 9 (8): E1772). Briefly, the rats were anesthetized with isoflurane. A lubricated latex balloon (length: 4.5 cm) that is assembled into an embolectomy catheter by being attached to a polyethylene tube to be connected to a syringe filled with water was inserted into the rectum and the descending colon of adult rats through the anus. […]

Assay [6] relates to occludin expression in colonic mucosa. Nature of the assay: Occludin expression in colonic tissue of DNBS-induced rats by western blotting. Particulars: 10 mg/kg.
The test system of assay [7] is visceral pain (visceral hypersensitivity) in rats induced by intrarectal injection of DNBS. The assay can be described thus: Acute administration test: abdominal withdrawal reflex (AWR) to colorectal distension in DNBS-treated rats. As to the method:
as §6
Colitis was induced by intrarectal administration of 15 mg of 2,4-dinitrobenzenesulfonic acid (DNBS; Sigma-Aldrich S.r.l., Milano, Italia) in 0.25 ml of 50% ethanol via a polyethylene PE-60 catheter inserted approximately 8 cm into the anus, while the rat was under short-term anesthesia by isoflurane (2%). […]
Compound A and Compound B were dissolved in water and orally administered 30 minutes before the beginning of a test, and an acute effect was evaluated.
as §5
Visceral sensitivity was evaluated by measuring abdominal withdrawal reflex (AWR) to colorectal distension (0.5 to 3 mL).

Assay [8] relates to colonic damage in rats induced by the intrarectal injection of DNBS. Nature of the assay: Intervention test: macroscopic colonic damage score in DNBS-treated rats. Particulars: intervention test: daily from Day 3 to Day 8. As to the method:
as §2, §3, §4

As to `O=C1CC(=O)N(c2ccc(NC(=O)c3ccccc3I)cc2)c2ccc3ccccc3c2N1` [Compound B48, 5-[4-(2-iodobenzoylamino)phenyl]-1H-naphtho[1,2-b][1,4]diazepine-2,4(3H,5H)-dione], the results for the “weight loss caused by DNBS” value in assay [1] and in assay [2] were “did not affect” and “does not affect”, respectively. In addition, the “colonic damage (macroscopic damage score)” value in assay [3] is “counteracted”; in assay [8] it was “significant reduction”. Besides, the “onset of visceral pain (visceral hypersensitivity)” value is on record as “counteracted” in assay [4] and “significantly reduces” in assay [5]. In assay [5], the “effect on visceral pain compared with the treatment with dexamethasone” value was “more effective”. The “occludin expression in inflamed tissues compared to the DNBS-induced rats” value in assay [6] (listed as Compound B) is on record as “increased; also recorded: counteract”. The “AWR to colorectal distension” value in assay [7] (acute oral administration 10 and 30 mg/kg, colorectal distension 1 to 2 mL) was “significantly reduced”.

For the compound `O=C1CC(=O)N(c2cccc(-c3noc(=S)[nH]3)c2)c2ccc3ccccc3c2N1.[Na]` [Compound A17, 5-[3-(5-thioxo-4H-[1,2,4]oxadiazol-3-yl)phenyl]-1H-naphtho[1,2-b][1,4]diazepine-2,4(3H,5H)-dione sodium salt], the “weight loss caused by DNBS” value in assay [1] was “did not affect”; in assay [2], “does not affect”. For the same compound, the “colonic damage (macroscopic damage score)” value was “counteracted” in assay [3] and “significant reduction” in assay [8]. Further, the “onset of visceral pain (visceral hypersensitivity)” value in assay [4] is “counteracted”; in assay [5], “significantly reduces”. For the same compound, in assay [5], the “effect on visceral pain compared with the treatment with dexamethasone” value is recorded as “more effective”. In addition, in assay [6] (listed as Compound A, sodium salt), the “occludin expression in inflamed tissues compared to the DNBS-induced rats” value was “increased; also recorded: counteract”. Moreover, the visceral pain threshold entry in assay [7] (acute administration, higher doses, DNBS animals) is recorded as “returned to a control value”. In addition, the “AWR to colorectal distension” value in assay [7] (acute oral administration 10 to 30 mg/kg, 30 minutes before test, seven days after DNBS) is “significantly and dose-dependently decreased”.
